Measured values: patent US20230364079A1, “COMPOUND AS BRAIN-PERMEABLE BTK OR HER2 INHIBITOR, PREPARATION METHOD THEREFOR, AND USE THEREOF” (CHENGDU HYPERWAY PHARMACEUTICALS CO., LTD., priority 2020, published 2023)

target: BTK wild-type kinase (Homo sapiens (Human), UniProt Q06187); assay: BTK kinase activity inhibition test in vitro (Caliper EZ Reader); format: biochemical
Description: In the tests on the activity of inhibiting BTK and HER2 kinase in vitro in the examples of the present disclosure, powder of the compound was dissolved in 100% DMSO to prepare a 10 mM stock solution and stored at-20° C. in the dark. […] In addition, the compounds were subjected to experiments such as liver microsome metabolic stability, rat PK, rat brain penetration rate, and drug efficacy model in the examples of the present disclosure.
Compound powders were dissolved in 100% DMSO to make 10 mM stock solutions, which were stored at -20° C. in the dark.
2: Kinase Reaction Process
(1) Preparation of 1 × Kinase buffer.
(5) After centrifugation at 1000 rpm for 30 seconds, the reaction plate was shaken to mix well and incubated at room temperature for 10 min.
(6) A 5/3-fold final concentration of a mixed solution of ATP and Kinase substrate 2 was prepared with 1 × Kinase buffer.
(7) 15 µL of the mixed solution of ATP and substrate with 5/3-fold final concentration was added to start the reaction.
(8) The 384-well plate was centrifuged at 1000 rpm for 30 seconds, shaken to mix well, and incubated at room temperature for 10 min.
(9) 30 µL of a stop solution was added to stop the kinase reaction, and after centrifugation at 1000 rpm for 30 seconds, the plate was shaken to mix well;
(10) The conversion rate was read with Caliper EZ Reader.
where Conversion%_sample indicates the conversion rate reading of the sample; Conversion%_min is the average reading of the negative control wells, representing the conversion rate reading of the wells without enzyme activity; Conversion%_max is the average reading of the ratio of the positive control wells, representing the conversion rate reading of the wells without compound inhibition.
Dose-Response Curve Fitting
With the log value of the concentration as the X-axis, and the percentage inhibition rate as the Y-axis, the dose-effect curve was fitted using the log(inhibitor) vs. response-Variable slope of the analysis software GraphPad Prism 5, so as to determine the IC50 value of each compound on the enzyme activity.
The calculation formula was: […]

BTK wild-type kinase, sequence (Q06187 whole entry): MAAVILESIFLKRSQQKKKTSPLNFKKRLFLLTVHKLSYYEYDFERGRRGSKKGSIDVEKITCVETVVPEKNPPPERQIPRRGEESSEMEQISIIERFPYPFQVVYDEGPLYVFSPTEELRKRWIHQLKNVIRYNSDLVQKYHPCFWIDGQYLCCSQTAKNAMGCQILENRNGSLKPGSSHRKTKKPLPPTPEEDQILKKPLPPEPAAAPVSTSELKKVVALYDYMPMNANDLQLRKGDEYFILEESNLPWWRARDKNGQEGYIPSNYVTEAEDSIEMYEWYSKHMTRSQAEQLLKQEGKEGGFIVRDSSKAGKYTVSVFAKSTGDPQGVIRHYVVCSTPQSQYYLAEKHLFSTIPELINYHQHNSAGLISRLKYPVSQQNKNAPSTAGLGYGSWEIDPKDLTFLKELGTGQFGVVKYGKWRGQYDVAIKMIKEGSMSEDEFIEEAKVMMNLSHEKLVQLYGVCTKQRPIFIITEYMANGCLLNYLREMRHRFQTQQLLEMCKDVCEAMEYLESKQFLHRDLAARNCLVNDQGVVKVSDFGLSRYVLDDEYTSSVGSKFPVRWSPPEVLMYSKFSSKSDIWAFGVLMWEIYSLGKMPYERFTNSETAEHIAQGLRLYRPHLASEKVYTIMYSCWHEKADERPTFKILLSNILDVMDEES

| Compound | IC50 [nM] |
| --- | --- |
| Nc1nccn2c(C3CCC(CO)OC3)nc(-c3ccc(C(=O)Nc4nccc(C(F)(F)F)c4F)cc3)c12 (centres unmarked) [Compound 86] | 100 to 1000 |
| Nc1nccn2c(C3CCC(CO)OC3)nc(-c3ccc(C(=O)Nc4ncccc4F)cc3)c12 (centres unmarked) [Compound 87] | 100 to 1000 |
| COc1ccccc1Oc1ccc(-c2nc(C3CCC(CO)OC3)n3ccnc(N)c23)cc1 (centres unmarked) [Compound 88] | 20 to 100 |
| COc1cccc(Oc2ccc(-c3nc(C4CCC(CO)OC4)n4ccncc34)cc2)c1F (centres unmarked) [Compound 90] | 20 to 100 |
| Cc1cccc(Oc2ccc(-c3nc(C45CCC(CO)(CC4)OC5)n4ccnc(N)c34)cc2)c1F [Compound 92] | < 5 |
| Nc1nccn2c(C34CCC(CO)(CC3)OC4)nc(-c3ccc(Oc4cccc(C(F)(F)F)c4F)cc3)c12 [Compound 93] | 5 to 20 |
| Nc1nccn2c(C34CCC(CO)(CC3)OC4)nc(-c3ccc(Oc4cccc(Cl)c4F)cc3)c12 [Compound 94] | 5 to 20 |
| Nc1nccn2c(C34CCC(CO)(CC3)OC4)nc(-c3ccc(Oc4cccc(OC(F)(F)F)c4F)cc3)c12 [Compound 95] | 5 to 20 |
| COc1ccc(C#N)c(Oc2ccc(-c3nc(C4CCC(CO)OC4)n4ccnc(N)c34)cc2)c1 (centres unmarked) [Compound 96] | 20 to 100 |
| Cc1cccnc1NC(=O)c1ccc(-c2nc(C3CCC(CO)OC3)n3ccnc(N)c23)cc1 (centres unmarked) [Compound 97] | 100 to 1000 |
| COc1cccc(Oc2ccc(-c3nc(C4CCC(CO)OC4)n4ccnc(N)c34)c(F)c2)c1C#N (centres unmarked) [Compound 98] | < 5 |
| NC(=O)c1ccccc1C(=O)c1ccc(-c2nc(C3CCC(CO)OC3)n3ccnc(N)c23)cc1 (centres unmarked) [Compound 99] | > 1000 |
| COc1cccc(Oc2ccc(-c3nc(C4CCC(CO)OC4)n4c(Cl)cnc(N)c34)cc2)c1C#N (centres unmarked) [Compound 100] | < 5 |
| Nc1nccn2c(C3CCC(CO)OC3)nc(-c3ccc(C(=O)c4ccc(Cl)cc4)cc3)c12 (centres unmarked) [Compound 102] | 20 to 100 |
| COc1cccc(Oc2ccc(-c3nc(C4CCC(CO)OC4)n4ccnc(N)c34)cc2)n1 (centres unmarked) [Compound 104] | 5 to 20 |
| Nc1nccn2c(C3CCC(CO)OC3)nc(-c3ccc(C(=O)Nc4cc(C(F)(F)F)ccn4)cc3F)c12 (centres unmarked) [Compound 105] | < 5 |
| CNC(=O)c1cc(Oc2ccc(-c3nc(C4CCC(CO)OC4)n4ccnc(N)c34)cc2)ccn1 (centres unmarked) [Compound 107] | 100 to 1000 |
| Nc1ncnc2c1c(-c1ccc(C(=O)Nc3ccccn3)cc1)nn2C1CCC(CO)OC1 (centres unmarked) [Compound 108] | 5 to 20 |
| Nc1ncc(Cl)n2c(C3CCC(CO)OC3)nc(-c3ccc(C(=O)Nc4cc(C(F)(F)F)ccn4)cc3)c12 (centres unmarked) [Compound 110] | < 5 |
| COc1cccc(Oc2ccc(-c3nc(C45CCC(CO)(CC4)OC5)n4ccnc(N)c34)cc2)c1C(F)(F)F [Compound 112] | 5 to 20 |
| Nc1nccn2c(C3CCC(CO)OC3)nc(-c3ccc(C(F)(F)c4ccccc4)cc3F)c12 (centres unmarked) [Compound 113] | 5 to 20 |
| Nc1nccn2c(C34CCC(CO)(CC3)OC4)nc(-c3ccc(C(F)(F)c4ccccc4)cc3F)c12 [Compound 114] | 5 to 20 |
| COc1cccc(Oc2ccc(-c3nc(C45CCC(CO)(CC4)OC5)n4ccnc(N)c34)c(F)c2)c1C#N [Compound 115] | < 5 |
| Nc1nccn2c(C34CCC(CO)(CC3)OC4)nc(-c3ccc(C(=O)Nc4cc(C(F)(F)F)ccn4)cc3F)c12 [Compound 117] | < 5 |
| COc1cccc(Oc2ccc(-c3nc(C45CCC(CO)(CC4)OC5)n4c(Cl)cnc(N)c34)cc2)c1C#N [Compound 122] | < 5 |
| COc1cccc(C(F)(F)c2ccc(-c3nc(C4CCC(CO)OC4)n4ccnc(N)c34)cc2)c1C#N (centres unmarked) [Compound 123] | 20 to 100 |
| COc1cccc(C(F)(F)c2ccc(-c3nc(C4CCC(CO)OC4)n4ccnc(N)c34)cc2)c1F (centres unmarked) [Compound 126] | 5 to 20 |
| Nc1nccn2c(C3CCC(CO)OC3)nc(-c3ccc(C(F)(F)c4cccc(F)c4F)cc3)c12 (centres unmarked) [Compound 127] | 5 to 20 |
| Nc1ncc(Cl)n2c(C34CCC(CO)(CC3)OC4)nc(-c3ccc(C(=O)Nc4cc(C(F)(F)F)ccn4)cc3)c12 [Compound 128] | < 5 |
